# In patent US9828385B2, “Spiro-oxazolones” (Hoffmann-La Roche Inc., priority 2014, dated 2017):
# Molecular target: T1, human V1a receptor (Homo sapiens, UniProt P37288)
# T1 construct: expressed in transfected cells; host or cells: HEK293 cells, transiently transfected; cell membranes
# Assay: human V1a receptor binding studies (3H-Vasopressin, SPA beads)
# Settings: membranes of HEK293 cells transiently transfected with human V1a receptor, Ki by Cheng-Prussoff from IC50, read-out: pKi hV1a (converted)
# Description: The human V1a receptor was cloned by RT-PCR from total human liver RNA. The coding sequence was subcloned in an expression vector after sequencing to confirm the identity of the amplified sequence. […] Cell membranes were prepared from HEK293 cells transiently transfected with the expression vector and grown in 20 liter fermenters with the following protocol.
# 50 g of cells are re-suspended in 30 ml freshly prepared ice cold Lysis buffer (50 mM HEPES, 1 mM EDTA, 10 mM MgCl2 adjusted to pH=7.4+complete cocktail of protease inhibitor (Roche Diagnostics)). Homogenized with Polytron for 1 min and sonicated on ice for 2×2 minutes at 80% intensity (Vibracell sonicator). The preparation is centrifuged 20 min at 500 g at 4° C., the pellet is discarded and the supernatant centrifuged 1 hour at 43′000 g at 4° C. (19′000 rpm). The pellet is re-suspended in 12.5 ml Lysis buffer+12.5 ml Sucrose 20% and homogenized using a Polytron for 1-2 min. The protein concentration is determined by the Bradford method and aliquots are stored at −80° C. until use. For binding studies 60 mg Yttrium silicate SPA beads (Amersham) are mixed with an aliquot of membrane in binding buffer (50 mM Tris, 120 mM NaCl, 5 mM KCl, 2 mM CaCl2, 10 mM MgCl2) for 15 minutes with mixing. 50 μl of bead/membrane mixture is then added to each well of a 96 well plate, followed by 50 μl of 4 nM 3H-Vasopressin (American Radiolabeled Chemicals). For total binding measurement 100 μl of binding buffer are added to the respective wells, for non-specific binding 100 μl of […] cold vasopressin and for compound testing 100 μl of a serial dilution of each compound in 2% DMSO. The plate is incubated 1 h at room temperature, centrifuged 1 min at 1000 g and counted on a Packard Top-Count. Non-specific binding counts are subtracted from each well and data is normalized to the maximum specific binding set at 100%. To calculate an IC 50 the curve is fitted using a non-linear regression model (XLfit) and the Ki is calculated using the Cheng-Prussoff equation.
# T1 sequence (P37288 whole entry): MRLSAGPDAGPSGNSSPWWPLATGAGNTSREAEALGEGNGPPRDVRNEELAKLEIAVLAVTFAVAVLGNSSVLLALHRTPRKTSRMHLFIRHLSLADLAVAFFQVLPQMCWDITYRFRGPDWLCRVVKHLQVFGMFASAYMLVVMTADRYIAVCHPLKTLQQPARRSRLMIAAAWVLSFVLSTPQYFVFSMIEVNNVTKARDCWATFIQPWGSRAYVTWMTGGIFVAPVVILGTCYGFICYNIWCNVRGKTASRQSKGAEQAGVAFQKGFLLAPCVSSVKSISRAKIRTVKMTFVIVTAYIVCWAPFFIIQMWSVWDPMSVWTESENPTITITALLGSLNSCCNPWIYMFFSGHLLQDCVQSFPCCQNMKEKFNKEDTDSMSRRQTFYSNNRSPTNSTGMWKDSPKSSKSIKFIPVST
row,Ki,Structure (SMILES)
1,12.6 nM,"CC(c1ccccc1)C1(C)OC(N2CCC3(CC2)OCc2ccccc23)=NC1=O (single isomer, unassigned; diastereomer a) [Example 108, (+)-5-Methyl-5-(1-phenylethyl)-2-(1′H,3H-spiro[2-benzofuran-1,4′-piperidin]-1′-yl)-1,3-oxazol-4(5H)-one diastereomer a]"
2,50.1 nM,"CC(c1ccccc1)C1(C)OC(N2CCC3(CC2)OCc2ccccc23)=NC1=O (single isomer, unassigned; diastereomer a) [Example 109, (−)-5-Methyl-5-(1-phenylethyl)-2-(1′H,3H-spiro[2-benzofuran-1,4′-piperidin]-1′-yl)-1,3-oxazol-4(5H)-one diastereomer a]"
3,200 nM,"CC(=O)O[C@H]1CC2(C[C@H]1OC(C)=O)OC(N1CCC3(CC1)OCc1ccccc13)=NC2=O (single isomer, unassigned; diastereomer a) [Example 120, 4-Oxo-2-(1′H,3H-spiro[2-benzofuran-1,4′-piperidin]-1′-yl)-1-oxa-3-azaspiro[4.4]non-2-ene-7,8-diyl diacetate diastereomer a]"
4,200 nM,"CO[C@H]1CC2(C[C@H]1OC)OC(N1CCC3(CC1)OCc1ccccc13)=NC2=O (single isomer, unassigned; diastereomer a) [Example 122, 7,8-Dimethoxy-2-(1′H,3H-spiro[2-benzofuran-1,4′-piperidin]-1′-yl)-1-oxa-3-azaspiro[4.4]non-2-en-4-one diastereomer a]"
5,31.6 nM,"CCCCCC1CCC2(CC1)OC(N1CCC3(CC1)OC(=O)c1ccccc13)=NC2=O (single isomer, unassigned; diastereomer a) [Example 126, 1′-[4-Oxo-8-pentyl-1-oxa-3-azaspiro[4.5]dec-2-en-2-yl]-3H-spiro[2-benzofuran-1,4′-piperidin]-3-one diastereomer a]"
6,20 nM,"CCCCCC1CCC2(CC1)OC(N1CCC3(CC1)OCc1ccccc13)=NC2=O (single isomer, unassigned; diastereomer a) [Example 128, 8-Pentyl-2-(1′H,3H-spiro[2-benzofuran-1,4′-piperidin]-1′-yl)-1-oxa-3-azaspiro[4.5]dec-2-en-4-one diastereomer a]"
7,1000 nM,"CCOC(=O)C1[C@H]2CC3(C[C@@H]12)OC(N1CCC2(CC1)OCc1ccccc12)=NC3=O (single isomer, unassigned; diastereomer a) [Example 148, Ethyl 4′-oxo-2′-(1′H,3H-spiro[2-benzofuran-1,4′-piperidin]-1′-yl)-4′H-spiro[bicyclo[3.1.0]hexane-3,5′-[1,3]oxazole]-6-carboxylate diastereomer a]"
8,126 nM,"O=C1N=C(N2CCC3(CC2)OCc2ccccc23)OC1C(O)c1ccc(Cl)cc1 (single isomer, unassigned; diastereomer b) [Example 44, (−)-5-[(4-Chlorophenyl)(hydroxy)methyl]-2-(1′H,3H-spiro[2-benzofuran-1,4′-piperidin]-1′-yl)-1,3-oxazol-4(5H)-one diastereomer b]"
9,15.8 nM,"O=C1N=C(N2CCC3(CC2)OCc2ccccc23)OC1C(O)c1ccc(Cl)cc1 (single isomer, unassigned; diastereomer b) [Example 45, (+)-5-[(4-Chlorophenyl)(hydroxy)methyl]-2-(1′H,3H-spiro[2-benzofuran-1,4′-piperidin]-1′-yl)-1,3-oxazol-4(5H)-one diastereomer b]"
10,126 nM,"CC1(CC2CCOC2)OC(N2CCC3(CC2)OCc2ccccc23)=NC1=O (single isomer, unassigned; diastereomer b) [Example 100, 5-Methyl-2-(1′H,3H-spiro[2-benzofuran-1,4′-piperidin]-1′-yl)-5-(tetrahydrofuran-3-ylmethyl)-1,3-oxazol-4(5H)-one diastereomer b]"
11,50.1 nM,"CC1(CC2CCCOC2)OC(N2CCC3(CC2)OCc2ccccc23)=NC1=O (single isomer, unassigned; diastereomer b) [Example 104, (+)-5-Methyl-2-(1′H,3H-spiro[2-benzofuran-1,4′-piperidin]-1′-yl)-5-(tetrahydro-2H-pyran-3-ylmethyl)-1,3-oxazol-4(5H)-one diastereomer b]"
12,501 nM,"CC1(CC2CCCOC2)OC(N2CCC3(CC2)OCc2ccccc23)=NC1=O (single isomer, unassigned; diastereomer b) [Example 105, (−)-5-Methyl-2-(1′H,3H-spiro[2-benzofuran-1,4′-piperidin]-1′-yl)-5-(tetrahydro-2H-pyran-3-ylmethyl)-1,3-oxazol-4(5H)-one diastereomer b]"
13,10 nM,"CC(c1ccccc1)C1(C)OC(N2CCC3(CC2)OCc2ccccc23)=NC1=O (single isomer, unassigned; diastereomer b) [Example 107, 5-Methyl-5-(1-phenylethyl)-2-(1′H,3H-spiro[2-benzofuran-1,4′-piperidin]-1′-yl)-1,3-oxazol-4(5H)-one diastereomer b]"
14,6.31 nM,"CC(c1ccccc1)C1(C)OC(N2CCC3(CC2)OCc2ccccc23)=NC1=O (single isomer, unassigned; diastereomer b) [Example 110, (−)-5-Methyl-5-(1-phenylethyl)-2-(1′H,3H-spiro[2-benzofuran-1,4′-piperidin]-1′-yl)-1,3-oxazol-4(5H)-one diastereomer b]"
15,251 nM,"CC(c1ccccc1)C1(C)OC(N2CCC3(CC2)OCc2ccccc23)=NC1=O (single isomer, unassigned; diastereomer b) [Example 111, (+)-5-Methyl-5-(1-phenylethyl)-2-(1′H,3H-spiro[2-benzofuran-1,4′-piperidin]-1′-yl)-1,3-oxazol-4(5H)-one diastereomer b]"
16,6.31 nM,"CC(=O)O[C@H]1CC2(C[C@H]1OC(C)=O)OC(N1CCC3(CC1)OCc1ccccc13)=NC2=O (single isomer, unassigned; diastereomer b) [Example 121, 4-Oxo-2-(1′H,3H-spiro[2-benzofuran-1,4′-piperidin]-1′-yl)-1-oxa-3-azaspiro[4.4]non-2-ene-7,8-diyl diacetate diastereomer b]"
17,251 nM,"CCCCCC1CCC2(CC1)OC(N1CCC3(CC1)OC(=O)c1ccccc13)=NC2=O (single isomer, unassigned; diastereomer b) [Example 127, 1′-[4-Oxo-8-pentyl-1-oxa-3-azaspiro[4.5]dec-2-en-2-yl]-3H-spiro[2-benzofuran-1,4′-piperidin]-3-one diastereomer b]"
18,158 nM,"CCCCCC1CCC2(CC1)OC(N1CCC3(CC1)OCc1ccccc13)=NC2=O (single isomer, unassigned; diastereomer b) [Example 129, 8-Pentyl-2-(1′H,3H-spiro[2-benzofuran-1,4′-piperidin]-1′-yl)-1-oxa-3-azaspiro[4.5]dec-2-en-4-one diastereomer b]"
19,50.1 nM,"O=C1N=C(N2CCC3(CC2)OCc2ccccc23)OC12C[C@@H]1OCCO[C@@H]1C2 (single isomer, unassigned; diastereomer b) [Example 145, 2′-(1′H,3H-Spiro[2-benzofuran-1,4′-piperidin]-1′-yl)-2,3,4a,5,7,7a-hexahydro-4′H-spiro[cyclopenta[b][1,4]dioxine-6,5′-[1,3]oxazol]-4′-one diastereomer b]"
20,200 nM,"CCOC(=O)C1[C@H]2CC3(C[C@@H]12)OC(N1CCC2(CC1)OCc1ccccc12)=NC3=O (single isomer, unassigned; diastereomer b) [Example 149, Ethyl 4′-oxo-2′-(1′H,3H-spiro[2-benzofuran-1,4′-piperidin]-1′-yl)-4′H-spiro[bicyclo[3.1.0]hexane-3,5′-[1,3]oxazole]-6-carboxylate diastereomer b]"
21,251 nM,"CCCCC1OC(N2CCC3(CC2)OC(=O)c2ccccc23)=NC1=O (single isomer, unassigned; enantiomer a) [Example 5, 1′-[5-Butyl-4-oxo-4,5-dihydro-1,3-oxazol-2-yl]-3H-spiro[2-benzofuran-1,4′-piperidin]-3-one enantiomer A]"
22,0.794 nM,"O=C1N=C(N2CCC3(CC2)OCc2ccccc23)OC1CC1CCCC1 (single isomer, unassigned; enantiomer a) [Example 13, 5-(Cyclopentylmethyl)-2-(1′H,3H-spiro[2-benzofuran-1,4′-piperidin]-1′-yl)-1,3-oxazol-4(5H)-one enantiomer A]"
23,2.51 nM,"O=C1OC2(CCN(C3=NC(=O)C(CC4CCCC4)O3)CC2)c2ccccc21 (single isomer, unassigned; enantiomer a) [Example 15, 1′-[5-(Cyclopentylmethyl)-4-oxo-4,5-dihydro-1,3-oxazol-2-yl]-3H-spiro[2-benzofuran-1,4′-piperidin]-3-one enantiomer A]"
